The record followed here is ChEMBL document CHEMBL5465560, “Selectivity Literature for EUbOPEN Chemogenomic Library” (2024).

Test [1] deals with Tyrosine-protein kinase ABL1 (Homo sapiens, UniProt P00519). Kind of test: Selectivity interaction (TR-FRET binding assay) EUB0000644a ABL1. (In general: In TR-FRET formats the signal depends on donor and acceptor labels being close together.)
In test [2] the target is ALK tyrosine kinase receptor (Homo sapiens, UniProt Q9UM73). Kind of test: Selectivity interaction (TR-FRET binding assay) EUB0000644a ALK.
Sequence of ALK tyrosine kinase receptor (Q9UM73 whole entry): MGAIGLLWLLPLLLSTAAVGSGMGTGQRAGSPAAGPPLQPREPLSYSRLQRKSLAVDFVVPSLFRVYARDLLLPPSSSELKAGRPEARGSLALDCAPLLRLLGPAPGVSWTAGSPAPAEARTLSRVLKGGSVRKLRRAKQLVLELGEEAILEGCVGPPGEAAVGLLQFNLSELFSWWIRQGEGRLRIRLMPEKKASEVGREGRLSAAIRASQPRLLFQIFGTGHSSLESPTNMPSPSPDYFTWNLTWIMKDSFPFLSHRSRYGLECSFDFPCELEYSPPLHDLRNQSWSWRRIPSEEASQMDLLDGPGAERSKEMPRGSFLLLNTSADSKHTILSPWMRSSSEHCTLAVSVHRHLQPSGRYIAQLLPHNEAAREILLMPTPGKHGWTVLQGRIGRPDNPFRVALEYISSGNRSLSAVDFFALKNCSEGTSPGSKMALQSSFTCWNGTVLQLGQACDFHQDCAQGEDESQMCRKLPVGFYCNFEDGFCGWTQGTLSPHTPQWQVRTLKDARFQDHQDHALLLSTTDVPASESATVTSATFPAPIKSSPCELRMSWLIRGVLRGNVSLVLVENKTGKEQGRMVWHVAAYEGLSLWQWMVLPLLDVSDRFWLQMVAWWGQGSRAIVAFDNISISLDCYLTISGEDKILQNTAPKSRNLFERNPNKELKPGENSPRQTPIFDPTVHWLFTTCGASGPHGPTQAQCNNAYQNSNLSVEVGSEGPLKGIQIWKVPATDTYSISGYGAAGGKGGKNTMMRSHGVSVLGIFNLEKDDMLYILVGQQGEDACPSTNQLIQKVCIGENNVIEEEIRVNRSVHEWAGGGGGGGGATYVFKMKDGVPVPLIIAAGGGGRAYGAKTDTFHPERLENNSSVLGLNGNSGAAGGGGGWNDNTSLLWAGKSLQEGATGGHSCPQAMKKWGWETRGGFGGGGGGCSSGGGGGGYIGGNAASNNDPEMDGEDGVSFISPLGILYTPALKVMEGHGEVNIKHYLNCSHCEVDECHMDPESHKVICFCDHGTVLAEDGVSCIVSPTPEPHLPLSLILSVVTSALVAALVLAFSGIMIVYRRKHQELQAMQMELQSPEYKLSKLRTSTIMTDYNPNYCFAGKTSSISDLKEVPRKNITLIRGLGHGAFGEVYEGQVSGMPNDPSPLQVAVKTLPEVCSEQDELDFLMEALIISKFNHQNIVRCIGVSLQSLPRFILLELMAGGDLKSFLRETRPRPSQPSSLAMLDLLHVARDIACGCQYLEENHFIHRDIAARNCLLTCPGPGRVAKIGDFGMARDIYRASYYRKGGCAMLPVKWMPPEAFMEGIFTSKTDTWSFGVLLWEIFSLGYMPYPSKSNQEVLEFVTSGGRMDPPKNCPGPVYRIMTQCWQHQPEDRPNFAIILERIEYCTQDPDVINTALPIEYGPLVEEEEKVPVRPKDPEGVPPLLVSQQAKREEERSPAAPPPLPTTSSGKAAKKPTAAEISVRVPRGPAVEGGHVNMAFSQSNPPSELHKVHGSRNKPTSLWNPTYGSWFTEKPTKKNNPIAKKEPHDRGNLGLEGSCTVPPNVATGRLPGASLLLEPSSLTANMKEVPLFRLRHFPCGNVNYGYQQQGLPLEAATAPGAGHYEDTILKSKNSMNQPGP
Test [3] concerns the target Aurora kinase B (Homo sapiens, UniProt Q96GD4). Kind of test: Selectivity interaction (TR-FRET binding assay) EUB0000644a AURKB.
In test [4] the target is Tyrosine-protein kinase BTK (Homo sapiens, UniProt Q06187). Kind of test: Selectivity interaction (TR-FRET binding assay) EUB0000644a BTK.
The target of test [5] is Cyclin-dependent kinase 11A (Homo sapiens, UniProt Q9UQ88). As to the kind of experiment: Selectivity interaction (TR-FRET binding assay) EUB0000644a CDK11A.
The target in test [6] is T1, Cyclin-dependent kinase 2 (Homo sapiens, UniProt P24941). As to the kind of experiment: Selectivity interaction (TR-FRET binding assay) EUB0000644a CDK2.
The target in test [7] is CDK8/Cyclin C (Homo sapiens, UniProt P49336). Kind of test: Selectivity interaction (TR-FRET binding assay) EUB0000644a CDK8. It is filed as protein-complex assay.
The target in test [8] is CDK7/Cyclin H/MNAT1 (Homo sapiens, UniProt P50613). Kind of test: Selectivity interaction (TR-FRET binding assay) EUB0000644a […]. In kind it is protein-complex assay.
Test [9] has as its target T2, Epidermal growth factor receptor (Homo sapiens, UniProt P00533). As to the kind of experiment: Selectivity interaction (TR-FRET binding assay) EUB0000644a EGFR.
Test [10] has as its target G protein-coupled receptor kinase 5 (Homo sapiens, UniProt P34947). Kind of test: Selectivity interaction (TR-FRET binding assay) EUB0000644a GRK5.
Test [11] concerns the target Vascular endothelial growth factor receptor 2 (Homo sapiens, UniProt P35968). Kind of test: Selectivity interaction (TR-FRET binding assay) EUB0000644a KDR.
Test [12] has as its target Tyrosine-protein kinase Lck (Homo sapiens, UniProt P06239). As to the kind of experiment: Selectivity interaction (TR-FRET binding assay) EUB0000644a LCK.
Test [13] has as its target T3, Mitogen-activated protein kinase 14 (Homo sapiens, UniProt Q16539). As to the kind of experiment: Selectivity interaction (TR-FRET binding assay) EUB0000644a MAPK14.
Test [14] concerns the target T4, Mitogen-activated protein kinase 8 (Homo sapiens, UniProt P45983). Kind of test: Selectivity interaction (TR-FRET binding assay) EUB0000644a MAPK8.
Test [15] concerns the target Hepatocyte growth factor receptor (Homo sapiens, UniProt P08581). Kind of test: Selectivity interaction (TR-FRET binding assay) EUB0000644a MET.
The target in test [16] is 5'-AMP-activated protein kinase catalytic subunit alpha-1 (Homo sapiens, UniProt Q13131). Kind of test: Selectivity interaction (TR-FRET binding assay) EUB0000644a PRKAA1.
The target in test [17] is cAMP-dependent protein kinase catalytic subunit alpha (Homo sapiens, UniProt P17612). Kind of test: Selectivity interaction (TR-FRET binding assay) EUB0000644a PRKACA.
The target in test [18] is Ribosomal protein S6 kinase alpha-3 (Homo sapiens, UniProt P51812). Kind of test: Selectivity interaction (TR-FRET binding assay) EUB0000644a RPS6KA3.
Test [19] concerns the target Tyrosine-protein kinase SYK (Homo sapiens, UniProt P43405). Kind of test: Selectivity interaction (TR-FRET binding assay) EUB0000644a SYK.
Test [20] addresses T1, Cyclin-dependent kinase 2. As to the kind of experiment: Selectivity interaction (Kinase panel (Invitrogen, enzymatic assay)) EUB0000623aCl CDK2.
Test [21] concerns the target T2, Epidermal growth factor receptor. Kind of test: Selectivity interaction (Kinase panel (Invitrogen, enzymatic assay)) EUB0000623aCl EGFR.
In test [22] the target is Ephrin type-A receptor 3 (Homo sapiens, UniProt P29320). As to the kind of experiment: Selectivity interaction (Kinase panel (Invitrogen, enzymatic assay)) EUB0000623aCl EPHA3.
The target in test [23] is Receptor tyrosine-protein kinase erbB-4 (Homo sapiens, UniProt Q15303). Kind of test: Selectivity interaction (Kinase panel (Invitrogen, enzymatic assay)) EUB0000623aCl ERBB4.
The target in test [24] is Glycogen synthase kinase-3 beta (Homo sapiens, UniProt P49841). Kind of test: Selectivity interaction (Kinase panel (Invitrogen, enzymatic assay)) EUB0000623aCl GSK3B.
The target of test [25] is Inhibitor of nuclear factor kappa-B kinase subunit beta (Homo sapiens, UniProt O14920). As to the kind of experiment: Selectivity interaction (Kinase panel (Invitrogen, enzymatic assay)) EUB0000623aCl IKBKB.
Sequence of Inhibitor of nuclear factor kappa-B kinase subunit beta (O14920 whole entry): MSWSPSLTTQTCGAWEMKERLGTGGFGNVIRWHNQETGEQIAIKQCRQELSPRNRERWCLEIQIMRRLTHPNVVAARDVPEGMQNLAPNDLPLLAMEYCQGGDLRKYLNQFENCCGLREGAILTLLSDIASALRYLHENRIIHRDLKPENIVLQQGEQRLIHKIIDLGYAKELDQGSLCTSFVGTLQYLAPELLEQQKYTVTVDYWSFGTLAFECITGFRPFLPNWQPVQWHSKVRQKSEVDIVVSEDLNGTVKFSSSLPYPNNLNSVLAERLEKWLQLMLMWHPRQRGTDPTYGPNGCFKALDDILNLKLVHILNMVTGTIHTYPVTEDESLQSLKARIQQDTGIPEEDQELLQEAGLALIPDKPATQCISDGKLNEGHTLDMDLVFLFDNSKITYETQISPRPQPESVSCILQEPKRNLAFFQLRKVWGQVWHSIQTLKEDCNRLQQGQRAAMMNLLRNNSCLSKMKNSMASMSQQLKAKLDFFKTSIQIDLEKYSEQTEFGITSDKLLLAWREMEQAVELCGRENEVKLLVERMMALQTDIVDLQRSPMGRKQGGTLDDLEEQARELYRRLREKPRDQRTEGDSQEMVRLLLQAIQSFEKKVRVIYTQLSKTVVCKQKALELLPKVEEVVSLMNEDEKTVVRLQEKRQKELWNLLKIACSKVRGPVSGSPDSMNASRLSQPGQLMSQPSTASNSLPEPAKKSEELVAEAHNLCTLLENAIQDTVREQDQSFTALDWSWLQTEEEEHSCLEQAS
Test [26] concerns the target Mitogen-activated protein kinase kinase kinase 1 (Homo sapiens, UniProt Q13233). Kind of test: Selectivity interaction (Kinase panel (Invitrogen, enzymatic assay)) EUB0000623aCl MAP3K1.
Test [27] has as its target Mitogen-activated protein kinase kinase kinase 7 (Homo sapiens, UniProt O43318). Kind of test: Selectivity interaction (Kinase panel (Invitrogen, enzymatic assay)) EUB0000623aCl MAP3K7.
Test [28] deals with T3, Mitogen-activated protein kinase 14. As to the kind of experiment: (§1) Selectivity interaction (Kinase panel (Invitrogen, enzymatic assay)) EUB0000623aCl MAPK14.
Test [29] has the same target. The test is described as §1. The source holds these as a separate data set.
Test [30] concerns the target Mitogen-activated protein kinase 3 (Homo sapiens, UniProt P27361). Kind of test: Selectivity interaction (Kinase panel (Invitrogen, enzymatic assay)) EUB0000623aCl MAPK3.
The target of test [31] is T4, Mitogen-activated protein kinase 8. Kind of test: Selectivity interaction (Kinase panel (Invitrogen, enzymatic assay)) EUB0000623aCl MAPK8.
The target of test [32] is Protein kinase C theta type (Homo sapiens, UniProt Q04759). Kind of test: Selectivity interaction (Kinase panel (Invitrogen, enzymatic assay)) EUB0000623aCl PRKCQ.
Test [33] deals with Macrophage-stimulating protein receptor (Homo sapiens, UniProt Q04912). As to the kind of experiment: Selectivity interaction (Kinase panel (Invitrogen, enzymatic assay)) EUB0000623aCl MST1R.

T3 sequence (Q16539 whole entry): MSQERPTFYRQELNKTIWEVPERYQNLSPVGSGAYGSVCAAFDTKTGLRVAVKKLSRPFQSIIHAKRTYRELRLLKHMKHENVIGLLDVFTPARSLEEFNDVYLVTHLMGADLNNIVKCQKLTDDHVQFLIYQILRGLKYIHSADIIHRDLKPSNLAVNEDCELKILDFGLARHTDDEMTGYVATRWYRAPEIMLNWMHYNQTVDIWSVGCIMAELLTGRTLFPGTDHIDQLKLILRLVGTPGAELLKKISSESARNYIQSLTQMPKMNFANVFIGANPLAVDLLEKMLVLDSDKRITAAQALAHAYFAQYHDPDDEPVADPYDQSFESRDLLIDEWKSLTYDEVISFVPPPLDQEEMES
T2 sequence (P00533 whole entry): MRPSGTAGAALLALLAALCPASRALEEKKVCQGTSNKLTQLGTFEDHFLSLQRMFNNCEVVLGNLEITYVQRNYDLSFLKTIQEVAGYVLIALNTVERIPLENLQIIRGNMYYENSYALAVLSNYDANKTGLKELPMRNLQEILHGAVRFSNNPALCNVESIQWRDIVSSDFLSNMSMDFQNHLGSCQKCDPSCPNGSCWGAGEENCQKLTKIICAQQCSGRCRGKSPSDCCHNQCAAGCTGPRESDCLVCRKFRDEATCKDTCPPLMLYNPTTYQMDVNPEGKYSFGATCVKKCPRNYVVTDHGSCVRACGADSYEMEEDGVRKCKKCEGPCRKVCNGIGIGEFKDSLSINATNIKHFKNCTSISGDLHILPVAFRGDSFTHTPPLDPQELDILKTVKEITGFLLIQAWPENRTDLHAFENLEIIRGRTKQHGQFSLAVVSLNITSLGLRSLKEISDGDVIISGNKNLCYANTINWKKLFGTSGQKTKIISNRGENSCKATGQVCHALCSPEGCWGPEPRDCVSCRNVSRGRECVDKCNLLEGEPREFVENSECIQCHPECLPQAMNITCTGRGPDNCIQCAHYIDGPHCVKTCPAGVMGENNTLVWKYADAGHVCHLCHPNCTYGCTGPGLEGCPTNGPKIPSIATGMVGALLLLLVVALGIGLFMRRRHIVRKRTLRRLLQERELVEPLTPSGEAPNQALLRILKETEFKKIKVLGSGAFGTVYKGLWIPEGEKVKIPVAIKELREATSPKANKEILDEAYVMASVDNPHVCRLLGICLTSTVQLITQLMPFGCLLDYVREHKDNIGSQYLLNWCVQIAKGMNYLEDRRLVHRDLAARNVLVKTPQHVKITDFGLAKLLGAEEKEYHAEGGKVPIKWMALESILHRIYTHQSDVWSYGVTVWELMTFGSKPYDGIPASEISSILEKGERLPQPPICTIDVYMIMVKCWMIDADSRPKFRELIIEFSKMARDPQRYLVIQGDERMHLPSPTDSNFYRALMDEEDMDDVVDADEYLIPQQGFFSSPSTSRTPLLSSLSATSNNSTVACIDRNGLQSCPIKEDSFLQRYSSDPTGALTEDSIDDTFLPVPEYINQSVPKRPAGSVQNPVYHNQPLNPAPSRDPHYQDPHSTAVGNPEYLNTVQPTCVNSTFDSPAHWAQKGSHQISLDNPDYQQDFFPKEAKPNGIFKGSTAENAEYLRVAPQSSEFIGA
T4 sequence (P45983 whole entry): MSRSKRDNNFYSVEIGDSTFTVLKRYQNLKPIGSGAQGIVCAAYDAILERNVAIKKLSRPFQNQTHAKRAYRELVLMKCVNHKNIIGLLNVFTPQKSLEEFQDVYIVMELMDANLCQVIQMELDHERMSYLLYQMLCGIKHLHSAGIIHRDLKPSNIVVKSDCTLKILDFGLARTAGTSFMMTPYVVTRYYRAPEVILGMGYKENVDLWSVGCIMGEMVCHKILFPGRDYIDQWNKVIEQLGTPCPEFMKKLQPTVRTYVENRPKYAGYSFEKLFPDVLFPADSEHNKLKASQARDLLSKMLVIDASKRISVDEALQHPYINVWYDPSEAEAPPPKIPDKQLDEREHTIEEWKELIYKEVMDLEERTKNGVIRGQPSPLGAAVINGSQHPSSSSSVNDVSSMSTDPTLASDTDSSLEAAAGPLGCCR
Sequence of G protein-coupled receptor kinase 5 (P34947 whole entry): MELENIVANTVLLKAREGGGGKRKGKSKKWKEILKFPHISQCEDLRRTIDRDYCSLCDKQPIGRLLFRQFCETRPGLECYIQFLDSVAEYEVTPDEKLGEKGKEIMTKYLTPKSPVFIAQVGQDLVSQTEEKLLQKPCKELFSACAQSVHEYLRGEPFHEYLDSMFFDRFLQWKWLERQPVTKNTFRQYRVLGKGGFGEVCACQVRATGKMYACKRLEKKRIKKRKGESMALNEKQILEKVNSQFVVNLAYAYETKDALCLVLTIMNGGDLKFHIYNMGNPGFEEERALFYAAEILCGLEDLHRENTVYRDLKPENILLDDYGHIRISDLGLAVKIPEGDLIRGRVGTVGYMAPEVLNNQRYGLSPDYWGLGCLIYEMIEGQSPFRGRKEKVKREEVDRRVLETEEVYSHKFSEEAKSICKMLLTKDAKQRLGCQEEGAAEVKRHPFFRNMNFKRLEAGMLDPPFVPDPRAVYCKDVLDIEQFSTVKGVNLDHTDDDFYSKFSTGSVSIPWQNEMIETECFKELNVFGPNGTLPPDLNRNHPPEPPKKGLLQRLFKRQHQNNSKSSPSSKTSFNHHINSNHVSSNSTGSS

Broadly, the IC50 is the concentration that gives 50% inhibition. Higher therefore signals weaker potency in that assay. As for `CC[C@@H]1CN(C(=O)NCC(F)(F)F)C[C@@H]1c1cnc2cnc3[nH]ccc3n12` [UPADACITINIB], the IC50 in [1] was over 10 µM; in test [2] it was 5.5 µM; in [3], 5.5 µM; in test [4], over 10 µM; in test [5] it was over 10 µM; in [6], over 10 µM. In addition, the IC50 in test [7] is over 10 µM; in [8], over 10 µM; in test [9] it was over 10 µM; in [10], 7.9 µM; in test [11] it was 1.5 µM; in test [12], 10 µM. The half-inhibitory concentration (IC50) was over 10 µM in test [13]; over 10 µM in [14]; over 10 µM in test [15]; 4.5 µM in test [16]; over 10 µM in test [17]; 9.6 µM in [18]. In addition, the IC50 in test [19] was over 10 µM.
Consider `CC(C)(C)c1ccc(C(=O)Nc2cn3cc(-n4ccnc4)ccc3n2)cc1`, for which the IC50 is 0.158 µM in test [20]; over 20 µM in test [21]; over 20 µM in [22]; over 20 µM in test [23]; over 10 µM in test [24]; over 10 µM in [25]. Further, the IC50 was over 10 µM in test [26]; over 10 µM in test [27]; over 10 µM in [28]; over 20 µM in [29]; over 10 µM in [30]; over 10 µM in test [31]. Also, the IC50 in test [32] was over 10 µM; in test [33], over 20 µM.
